In ChEMBL document CHEMBL1909046, “DrugMatrix in vitro pharmacology data” one finds IC50 and Ki data, which are given here for 20 molecules.

The target of one assay is T1, Adenosine receptor A3 (Homo sapiens, UniProt P0DMS8).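 Also: radioligand binding assay with AB-MECA serving as the labeled ligand; in other assays of this panel Not Active means under 50% inhibition at 10 µM.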
T1 sequence (P0DMS8 whole entry): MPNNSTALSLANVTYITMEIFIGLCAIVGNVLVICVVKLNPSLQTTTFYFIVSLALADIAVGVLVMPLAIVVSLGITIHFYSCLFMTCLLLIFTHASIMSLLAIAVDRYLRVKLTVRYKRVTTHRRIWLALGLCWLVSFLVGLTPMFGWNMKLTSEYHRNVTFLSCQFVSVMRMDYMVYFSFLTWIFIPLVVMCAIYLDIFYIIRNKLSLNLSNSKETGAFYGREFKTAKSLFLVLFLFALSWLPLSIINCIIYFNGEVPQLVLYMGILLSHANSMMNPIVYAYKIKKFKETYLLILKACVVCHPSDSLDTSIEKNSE
The class given is cell membranes, CHO-K1, Membrane.

Assay [1] addresses Sodium-dependent noradrenaline transporter (Homo sapiens, UniProt P23975). The assay is described as follows: DRUGMATRIX: Norepinephrine Transporter radioligand binding (ligand: [125I] RTI-55). It is filed as cell membranes, MDCK, Membrane. To be noted: Not Active = under 50% inhibition at 10 µM; for Ki: read-out: Ki.
The target of the next assay is Acetylcholinesterase (Homo sapiens, UniProt P22303). Briefly: DRUGMATRIX: Acetylcholinesterase enzyme inhibition (substrate: acetylthiocholine). The class given is cell-based, HEK293. To be noted: Not Active = under 50% inhibition at 10 µM.
Sequence of Acetylcholinesterase (P22303 whole entry): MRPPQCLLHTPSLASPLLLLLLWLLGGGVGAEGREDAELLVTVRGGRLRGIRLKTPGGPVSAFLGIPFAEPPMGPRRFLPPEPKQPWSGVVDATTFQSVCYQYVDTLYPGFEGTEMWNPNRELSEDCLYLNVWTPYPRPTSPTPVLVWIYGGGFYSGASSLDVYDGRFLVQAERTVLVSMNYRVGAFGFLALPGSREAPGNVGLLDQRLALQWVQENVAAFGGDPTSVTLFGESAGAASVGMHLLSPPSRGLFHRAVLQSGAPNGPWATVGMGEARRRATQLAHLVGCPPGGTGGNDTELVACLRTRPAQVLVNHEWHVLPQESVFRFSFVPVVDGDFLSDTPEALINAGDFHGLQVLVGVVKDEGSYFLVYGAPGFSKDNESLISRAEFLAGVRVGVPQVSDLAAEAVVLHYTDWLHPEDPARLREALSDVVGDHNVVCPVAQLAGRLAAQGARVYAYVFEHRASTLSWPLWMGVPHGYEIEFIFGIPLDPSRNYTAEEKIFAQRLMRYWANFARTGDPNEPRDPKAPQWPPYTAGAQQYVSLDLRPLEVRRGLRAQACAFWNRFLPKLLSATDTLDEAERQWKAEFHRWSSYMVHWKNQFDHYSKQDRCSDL
For assay [2], the target named is 5-hydroxytryptamine receptor 2B (Homo sapiens, UniProt P41595). The class given is cell membranes, CHO-K1, Membrane. To be noted: for Ki: read-out: Ki. As to all read-outs here: in other assays of this panel Not Active means under 50% inhibition at 10 µM.
Sequence of 5-hydroxytryptamine receptor 2B (P41595 whole entry): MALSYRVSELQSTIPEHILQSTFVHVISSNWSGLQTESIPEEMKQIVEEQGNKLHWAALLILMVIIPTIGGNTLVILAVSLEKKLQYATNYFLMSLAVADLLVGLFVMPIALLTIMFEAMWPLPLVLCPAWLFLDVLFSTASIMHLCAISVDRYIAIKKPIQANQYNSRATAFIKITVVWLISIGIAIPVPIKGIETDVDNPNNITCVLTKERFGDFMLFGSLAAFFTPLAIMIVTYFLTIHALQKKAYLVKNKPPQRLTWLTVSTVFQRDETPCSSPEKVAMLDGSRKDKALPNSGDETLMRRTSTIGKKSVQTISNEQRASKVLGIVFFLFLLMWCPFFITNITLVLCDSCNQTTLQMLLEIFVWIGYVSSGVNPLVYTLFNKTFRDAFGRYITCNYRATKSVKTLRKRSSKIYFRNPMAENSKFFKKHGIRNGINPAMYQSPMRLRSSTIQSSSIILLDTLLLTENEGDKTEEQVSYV
Assay [3] can be described thus: DRUGMATRIX: Sodium/nucleoside co-transporter radioligand binding (ligand: nitrobenzylthioinosine). The class given is cell membranes, Cavia porcellus, Dunkin-Hartley, Cerebral cortex, Membrane. To be noted: Not Active = under 50% inhibition at 10 µM.
The target in a further assay is Melanocortin receptor 4 (Homo sapiens, UniProt P32245). The class given is cell membranes, Membrane. To be noted: hek293. Also: in other assays of this panel Not Active means under 50% inhibition at 10 µM.
Sequence of Melanocortin receptor 4 (P32245 whole entry): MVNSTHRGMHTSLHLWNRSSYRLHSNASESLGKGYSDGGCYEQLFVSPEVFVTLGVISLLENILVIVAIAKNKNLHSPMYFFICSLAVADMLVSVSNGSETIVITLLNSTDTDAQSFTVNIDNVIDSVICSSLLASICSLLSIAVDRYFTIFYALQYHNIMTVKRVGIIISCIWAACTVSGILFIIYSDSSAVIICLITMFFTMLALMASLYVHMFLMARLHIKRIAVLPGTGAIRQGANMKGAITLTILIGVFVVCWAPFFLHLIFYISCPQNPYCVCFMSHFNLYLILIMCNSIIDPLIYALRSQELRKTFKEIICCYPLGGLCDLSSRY

Sequence of Sodium-dependent noradrenaline transporter (P23975 whole entry): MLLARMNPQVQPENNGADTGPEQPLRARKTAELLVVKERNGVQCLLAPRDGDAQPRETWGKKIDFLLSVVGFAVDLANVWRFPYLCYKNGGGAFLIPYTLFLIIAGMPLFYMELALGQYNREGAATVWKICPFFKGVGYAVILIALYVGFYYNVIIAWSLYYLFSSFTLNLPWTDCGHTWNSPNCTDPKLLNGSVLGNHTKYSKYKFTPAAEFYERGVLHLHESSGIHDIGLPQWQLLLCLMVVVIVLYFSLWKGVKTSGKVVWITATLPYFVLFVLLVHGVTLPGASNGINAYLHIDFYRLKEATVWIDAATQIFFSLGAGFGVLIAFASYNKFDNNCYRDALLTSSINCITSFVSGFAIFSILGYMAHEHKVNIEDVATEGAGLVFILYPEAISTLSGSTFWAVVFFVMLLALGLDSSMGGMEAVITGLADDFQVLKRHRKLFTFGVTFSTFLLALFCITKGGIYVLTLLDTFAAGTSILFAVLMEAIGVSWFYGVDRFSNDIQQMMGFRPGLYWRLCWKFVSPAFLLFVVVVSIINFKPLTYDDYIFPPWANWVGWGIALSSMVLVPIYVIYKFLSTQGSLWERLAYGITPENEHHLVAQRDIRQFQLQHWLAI

Consider `COc1cc(/C=C/C(=O)O)ccc1O` [FERULATE], for which the IC50 entry (against Adenosine receptor A3 (cho-k1); in assay [1] (mdck); on Acetylcholinesterase (hek293); in assay [2] (cho-k1); in assay [3]; against Melanocortin receptor 4) was “Not Active” in each case. The Ki result in assay [3] is on record as “Not Active”.

`CC(C)(C#N)c1cc(Cn2cncn2)cc(C(C)(C)C#N)c1` [ANASTROZOLE]: the IC50 entry (at Adenosine receptor A3 (cho-k1); in assay [1] (mdck); against Acetylcholinesterase (hek293); in assay [2] (cho-k1); in assay [3]; on Melanocortin receptor 4) was “Not Active” throughout. Besides, in assay [3], the inhibition constant Ki entry is “Not Active”.

As to `COc1ccc(Cl)cc1C(=O)NCCc1ccc(S(=O)(=O)NC(=O)NC2CCCCC2)cc1` [GLYBURIDE], the IC50 entry (against Adenosine receptor A3 (cho-k1); in assay [1] (mdck); at Acetylcholinesterase (hek293); in assay [2] (cho-k1); in assay [3]; against Melanocortin receptor 4) was “Not Active” in each case. Further, the Ki entry in assay [3] is on record as “Not Active”.

`CC(C)NCC(O)COc1ccc(CC(N)=O)cc1` (stereo unspecified) [ATENOLOL]: the IC50 entry (on Adenosine receptor A3 (cho-k1); in assay [1] (mdck); at Acetylcholinesterase (hek293); in assay [2] (cho-k1); in assay [3]; at Melanocortin receptor 4) was “Not Active” in each case. For the same molecule, the inhibitory constant (Ki) entry in assay [3] is “Not Active”.

Turning to `O=C(O)COC(=O)Cc1ccccc1Nc1c(Cl)cccc1Cl` [ACECLOFENAC], the IC50 entry (on Adenosine receptor A3 (cho-k1); in assay [1] (mdck); against Acetylcholinesterase (hek293); in assay [2] (cho-k1); in assay [3]; against Melanocortin receptor 4) was “Not Active” each time. For the same molecule, the inhibition constant Ki entry in assay [3] is on record as “Not Active”.

For `Cl.NC[C@H]1CC[C@H](C(=O)Oc2ccc(CCC(=O)O)cc2)CC1` [CETRAXATE HYDROCHLORIDE], the half-maximal inhibitory concentration (IC50) entry (at Adenosine receptor A3 (cho-k1); in assay [1] (mdck); on Acetylcholinesterase (hek293); in assay [2] (cho-k1); in assay [3]; against Melanocortin receptor 4) was “Not Active” each time. Besides, in assay [3], the inhibition constant Ki entry is reported as “Not Active”.

As to `CC(=O)[C@]1(O)Cc2c(O)c3c(c(O)c2[C@@H](O[C@H]2C[C@H](N)[C@H](O)[C@H](C)O2)C1)C(=O)c1ccccc1C3=O` [IDARUBICIN], the IC50 result (against Adenosine receptor A3 (cho-k1); in assay [1] (mdck); on Acetylcholinesterase (hek293); in assay [2] (cho-k1); in assay [3]; at Melanocortin receptor 4) was “Not Active” throughout. Besides, in assay [3], the Ki entry is “Not Active”.

Consider `C[C@@H]1[C@H](O)[C@@H](C)/C=C/C=C/C=C/C=C/C=C/C=C/C=C/[C@H](O[C@@H]2O[C@H](C)[C@@H](O)[C@H](N)[C@@H]2O)C[C@@H]2O[C@](O)(C[C@@H](O)C[C@@H](O)[C@H](O)CC[C@@H](O)C[C@@H](O)CC(=O)O[C@H]1C)C[C@H](O)[C@H]2C(=O)O` [AMPHOTERICIN B], for which the concentration for half-maximal inhibition (IC50) entry (against Adenosine receptor A3 (cho-k1); in assay [1] (mdck); on Acetylcholinesterase (hek293); in assay [2] (cho-k1); in assay [3]; against Melanocortin receptor 4) was “Not Active” throughout. Further, in assay [3], the inhibitory constant (Ki) result is reported as “Not Active”.

Consider `O=C(O)c1ccccc1` [BENZOIC ACID], for which the half-maximal inhibitory concentration (IC50) entry (against Adenosine receptor A3 (cho-k1); in assay [1] (mdck); against Acetylcholinesterase (hek293); in assay [2] (cho-k1); in assay [3]; at Melanocortin receptor 4) was “Not Active” throughout. The Ki result in assay [3] was “Not Active”.

As to `C[C@]12CC[C@@H](O)C[C@@H]1CC[C@@H]1[C@@H]2CC[C@]2(C)C(=O)CC[C@@H]12` [ANDROSTERONE], the concentration for half-maximal inhibition (IC50) result (against Adenosine receptor A3 (cho-k1); in assay [1] (mdck); against Acetylcholinesterase (hek293); in assay [2] (cho-k1); in assay [3]; at Melanocortin receptor 4) was “Not Active” each time. In assay [3], the inhibitory constant (Ki) entry is “Not Active”.

On to `NCC(CC(=O)O)c1ccc(Cl)cc1` (stereo unspecified) [BACLOFEN], for which the IC50 entry (against Adenosine receptor A3 (cho-k1); in assay [1] (mdck); at Acetylcholinesterase (hek293); in assay [2] (cho-k1); in assay [3]; against Melanocortin receptor 4) was “Not Active” throughout. Moreover, the Ki result in assay [3] is “Not Active”.

On to `O=C(O)CO` [GLYCOLIC ACID], for which the IC50 result (against Adenosine receptor A3 (cho-k1); in assay [1] (mdck); at Acetylcholinesterase (hek293); in assay [2] (cho-k1); in assay [3]; against Melanocortin receptor 4) was “Not Active” in each case. In assay [3], the Ki entry is “Not Active”.

As to `COc1ccccc1OCCNCC(O)COc1cccc2[nH]c3ccccc3c12` (stereo unspecified) [CARVEDILOL], the IC50 entry on Adenosine receptor A3 (cho-k1) was “Not Active”; in assay [1] (read-out: IC50), 0.538 µM; on Acetylcholinesterase (hek293), “Not Active”; in assay [2] (read-out: IC50), 0.023 µM; in assay [3], “Not Active”; against Melanocortin receptor 4 it was “Not Active”. In addition, the inhibitory constant (Ki) is 0.533 µM in assay [1], 0.015 µM in assay [2] and “Not Active” in assay [3].

Consider `O=C(NCCN1CCOCC1)c1ccc(Cl)cc1` [MOCLOBEMIDE], for which the IC50 result (on Adenosine receptor A3 (cho-k1); in assay [1] (mdck); on Acetylcholinesterase (hek293); in assay [2] (cho-k1); in assay [3]; against Melanocortin receptor 4) was “Not Active” each time. The inhibition constant (Ki) result in assay [3] is listed as “Not Active”.

For the molecule `C=CCO` [ALLYL ALCOHOL], the IC50 result (at Adenosine receptor A3 (cho-k1); in assay [1] (mdck); on Acetylcholinesterase (hek293); in assay [2] (cho-k1); in assay [3]; against Melanocortin receptor 4) was “Not Active” throughout. Moreover, the Ki entry in assay [3] is given as “Not Active”.

Regarding `CC(C)Cc1ccc([C@H](C)C(=O)O)cc1` [DEXIBUPROFEN], the IC50 result (against Adenosine receptor A3 (cho-k1); in assay [1] (mdck); at Acetylcholinesterase (hek293); in assay [2] (cho-k1); in assay [3]; on Melanocortin receptor 4) was “Not Active” each time. Besides, the Ki entry in assay [3] was “Not Active”.

Regarding `O=c1[nH]cnc2c1ncn2[C@H]1CC[C@@H](CO)O1` [DIDANOSINE], the half-maximal inhibitory concentration (IC50) result (at Adenosine receptor A3 (cho-k1); in assay [1] (mdck); against Acetylcholinesterase (hek293); in assay [2] (cho-k1); in assay [3]; against Melanocortin receptor 4) was “Not Active” each time. The Ki result in assay [3] was “Not Active”.

`CC1(COc2ccc(CC3SC(=O)NC3=O)cc2)CCCCC1` (stereo unspecified) [CIGLITAZONE]: the half-inhibitory concentration (IC50) on Adenosine receptor A3 (read-out: IC50) was 3.05 µM; in assay [1] (read-out: IC50), 2.22 µM; on Acetylcholinesterase (read-out: IC50), 15 µM; in assay [2] (cho-k1), “Not Active”; in assay [3] it was “Not Active”; on Melanocortin receptor 4 it was “Not Active”. In addition, the Ki was 1.72 µM on Adenosine receptor A3 (read-out: Ki), 2.2 µM in assay [1] and “Not Active” in assay [3].

For the molecule `CC(=O)Nc1ccc2c(c1)Cc1ccccc1-2` [2-ACETYLAMINOFLUORENE], the IC50 entry against Adenosine receptor A3 (cho-k1) was “Not Active”; in assay [1] (read-out: IC50) it was 8.59 µM; at Acetylcholinesterase (hek293), “Not Active”; in assay [2] (read-out: IC50), 3.17 µM; in assay [3] it was “Not Active”; at Melanocortin receptor 4 it was “Not Active”. Besides, the Ki in assay [1] is 8.52 µM; in assay [2] it was 2.02 µM; in assay [3], “Not Active”.

Take `CC(N)Cc1c[nH]c2ccc(OCc3cccs3)cc12` (stereo unspecified) [BW-723C86]: the IC50 result is “Not Active” against Adenosine receptor A3 (cho-k1); 3.63 µM in assay [1] (read-out: IC50); “Not Active” against Acetylcholinesterase (hek293); “Not Active” in assay [3]; “Not Active” on Melanocortin receptor 4. The Ki in assay [1] is 3.6 µM; in assay [3], “Not Active”.

As usually defined, the IC50 is the midpoint of a concentration-inhibition curve. In general, Ki refers to the equilibrium dissociation constant of an inhibitor or competing ligand from its target.
